According to ChEMBL document CHEMBL6074641, “Polypharmacological Drug Design Guided by Integrating Phenotypic and Restricted Fragment Docking Strategies” (J Med Chem, 2024):
Active and inactive are the calls of the source. The calls are words filed in the database; no cut-off is given here.

Assays:
[1] = target: Mitogen-activated protein kinase kinase kinase kinase 4 (Homo sapiens, UniProt O95819); experiment: Inhibition of recombinant MAP4K4 (1 to 328 residues) (unknown origin) expressed in Escherichia coli BL21([…]) using MBP as substrate preincubated for 15 mins followed by substrate and ATP addition and measured after 90 mins by ADP-Glo luminescence […] assay
Chain of Mitogen-activated protein kinase kinase kinase kinase 4 (O95819 whole entry, the tested form may be a part): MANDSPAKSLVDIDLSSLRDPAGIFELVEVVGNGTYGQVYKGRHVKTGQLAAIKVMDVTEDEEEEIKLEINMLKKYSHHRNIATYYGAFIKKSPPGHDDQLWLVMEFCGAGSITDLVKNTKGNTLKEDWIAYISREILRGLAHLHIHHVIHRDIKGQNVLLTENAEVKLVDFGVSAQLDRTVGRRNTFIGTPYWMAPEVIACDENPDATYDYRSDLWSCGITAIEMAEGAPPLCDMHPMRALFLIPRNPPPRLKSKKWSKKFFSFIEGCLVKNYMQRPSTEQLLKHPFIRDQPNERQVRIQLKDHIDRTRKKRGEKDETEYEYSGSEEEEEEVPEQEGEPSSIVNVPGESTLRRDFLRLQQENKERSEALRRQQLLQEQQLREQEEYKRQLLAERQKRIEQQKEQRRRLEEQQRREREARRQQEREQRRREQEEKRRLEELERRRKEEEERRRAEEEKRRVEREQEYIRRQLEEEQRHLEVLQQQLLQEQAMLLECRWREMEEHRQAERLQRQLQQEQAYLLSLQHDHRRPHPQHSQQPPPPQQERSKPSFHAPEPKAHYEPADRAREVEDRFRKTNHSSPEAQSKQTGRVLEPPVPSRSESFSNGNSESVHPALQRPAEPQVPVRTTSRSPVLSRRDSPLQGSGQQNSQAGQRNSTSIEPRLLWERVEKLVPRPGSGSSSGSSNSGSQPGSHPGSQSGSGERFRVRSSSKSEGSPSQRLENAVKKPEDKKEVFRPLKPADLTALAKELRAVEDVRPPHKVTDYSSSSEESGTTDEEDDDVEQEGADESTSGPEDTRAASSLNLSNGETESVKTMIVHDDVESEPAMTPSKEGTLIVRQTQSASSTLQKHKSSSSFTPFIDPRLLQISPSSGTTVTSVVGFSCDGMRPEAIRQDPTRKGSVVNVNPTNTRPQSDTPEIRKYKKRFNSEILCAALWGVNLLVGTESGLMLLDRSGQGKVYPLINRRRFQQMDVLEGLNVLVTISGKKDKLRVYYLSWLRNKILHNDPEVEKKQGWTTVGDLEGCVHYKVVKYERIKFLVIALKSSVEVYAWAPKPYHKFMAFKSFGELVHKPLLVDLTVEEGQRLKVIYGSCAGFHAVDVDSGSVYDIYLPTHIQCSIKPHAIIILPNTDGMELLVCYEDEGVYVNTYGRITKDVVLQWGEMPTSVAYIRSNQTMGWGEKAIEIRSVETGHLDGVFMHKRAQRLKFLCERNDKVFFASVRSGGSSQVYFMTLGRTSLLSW

[2] = target: ALK tyrosine kinase receptor (Homo sapiens, UniProt Q9UM73, E1167A); experiment: Inhibition of ALK E1167A mutant (unknown origin) expressed in Escherichia coli BL21 (DE3)
Chain of ALK tyrosine kinase receptor (Q9UM73 19-1620 E1167A limits assumed): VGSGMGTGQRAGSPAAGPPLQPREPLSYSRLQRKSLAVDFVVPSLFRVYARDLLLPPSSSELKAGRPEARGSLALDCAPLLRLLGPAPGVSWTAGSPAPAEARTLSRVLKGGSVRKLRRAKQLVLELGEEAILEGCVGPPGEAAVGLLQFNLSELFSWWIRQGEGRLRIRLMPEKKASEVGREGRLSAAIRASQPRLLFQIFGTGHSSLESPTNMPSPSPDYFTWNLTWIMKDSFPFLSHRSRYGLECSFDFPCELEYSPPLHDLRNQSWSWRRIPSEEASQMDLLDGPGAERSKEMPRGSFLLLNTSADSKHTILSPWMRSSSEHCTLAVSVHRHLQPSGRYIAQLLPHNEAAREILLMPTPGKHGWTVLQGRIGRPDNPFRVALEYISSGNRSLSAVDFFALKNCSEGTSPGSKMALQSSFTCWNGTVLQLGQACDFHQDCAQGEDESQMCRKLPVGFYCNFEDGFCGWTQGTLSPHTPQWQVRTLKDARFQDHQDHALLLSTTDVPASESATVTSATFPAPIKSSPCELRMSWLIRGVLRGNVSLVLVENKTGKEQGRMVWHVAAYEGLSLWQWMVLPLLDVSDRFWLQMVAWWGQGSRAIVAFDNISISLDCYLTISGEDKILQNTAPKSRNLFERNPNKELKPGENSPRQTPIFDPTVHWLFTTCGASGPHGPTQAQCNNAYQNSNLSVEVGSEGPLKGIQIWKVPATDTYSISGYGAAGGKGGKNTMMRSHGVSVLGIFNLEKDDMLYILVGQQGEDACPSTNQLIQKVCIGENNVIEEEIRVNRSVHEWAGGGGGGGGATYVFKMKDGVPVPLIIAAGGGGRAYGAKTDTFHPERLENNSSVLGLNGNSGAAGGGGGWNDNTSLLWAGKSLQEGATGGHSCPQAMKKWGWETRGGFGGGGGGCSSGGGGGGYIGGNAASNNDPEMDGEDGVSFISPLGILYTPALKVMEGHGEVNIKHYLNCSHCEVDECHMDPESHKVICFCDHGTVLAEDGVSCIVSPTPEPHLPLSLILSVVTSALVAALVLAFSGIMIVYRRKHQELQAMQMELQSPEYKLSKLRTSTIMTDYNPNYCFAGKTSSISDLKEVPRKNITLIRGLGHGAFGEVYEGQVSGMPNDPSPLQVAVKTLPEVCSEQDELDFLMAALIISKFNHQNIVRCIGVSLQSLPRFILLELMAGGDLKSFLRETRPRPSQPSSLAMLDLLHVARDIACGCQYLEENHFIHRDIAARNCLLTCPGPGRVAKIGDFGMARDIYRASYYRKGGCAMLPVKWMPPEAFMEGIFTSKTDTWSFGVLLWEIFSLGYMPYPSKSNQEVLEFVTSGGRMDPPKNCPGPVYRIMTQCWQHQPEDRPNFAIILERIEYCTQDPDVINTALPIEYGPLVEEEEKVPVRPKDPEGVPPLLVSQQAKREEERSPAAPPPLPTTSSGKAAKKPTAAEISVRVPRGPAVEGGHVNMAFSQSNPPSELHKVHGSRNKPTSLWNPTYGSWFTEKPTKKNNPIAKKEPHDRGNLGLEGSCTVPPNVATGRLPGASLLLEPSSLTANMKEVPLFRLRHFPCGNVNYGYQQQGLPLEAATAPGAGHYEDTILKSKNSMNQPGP

[3] = target: T1, Receptor-interacting serine/threonine-protein kinase 1 (Homo sapiens) (UniProt Q13546); experiment: Inhibition of RIPK1 (unknown origin) at 1 uM
T1 sequence (whole entry): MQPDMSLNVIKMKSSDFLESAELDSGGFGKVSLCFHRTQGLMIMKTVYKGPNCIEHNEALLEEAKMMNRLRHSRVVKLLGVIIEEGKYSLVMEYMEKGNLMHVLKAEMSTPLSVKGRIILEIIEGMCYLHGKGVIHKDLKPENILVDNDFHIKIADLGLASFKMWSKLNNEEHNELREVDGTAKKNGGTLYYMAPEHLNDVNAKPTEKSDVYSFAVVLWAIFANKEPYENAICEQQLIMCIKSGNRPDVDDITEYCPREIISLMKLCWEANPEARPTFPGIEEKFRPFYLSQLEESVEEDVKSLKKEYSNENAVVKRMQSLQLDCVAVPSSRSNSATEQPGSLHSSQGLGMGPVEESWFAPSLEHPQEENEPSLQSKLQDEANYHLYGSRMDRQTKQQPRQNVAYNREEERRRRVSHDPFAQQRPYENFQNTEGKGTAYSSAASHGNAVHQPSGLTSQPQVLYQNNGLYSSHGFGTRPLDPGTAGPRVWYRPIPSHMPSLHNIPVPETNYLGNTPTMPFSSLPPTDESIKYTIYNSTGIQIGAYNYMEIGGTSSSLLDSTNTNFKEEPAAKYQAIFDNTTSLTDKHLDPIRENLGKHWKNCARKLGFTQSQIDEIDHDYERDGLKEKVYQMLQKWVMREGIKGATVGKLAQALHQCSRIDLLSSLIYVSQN

BV-2 [4] = experiment: Anti-inflammatory activity against LPS/zVAD treated mouse BV-2 cells assessed as decrease in TNFalpha release at 100 nM by ELISA; type: functional, cell-based
BV-2 [5] = experiment: Anti-inflammatory activity against LPS/zVAD treated mouse BV-2 cells assessed as decrease in IL-1beta release at 100 nM by ELISA; type: functional, cell-based
[6] = target: Mitogen-activated protein kinase kinase kinase kinase 4 (Mus musculus) (UniProt P97820); experiment: Inhibition of MAP4K4 activation in mouse BV-2 cells by Western blotting analysis; type: cell-based; conditions: dose 4-100 nM
[7] = target: ALK tyrosine kinase receptor (Mus musculus) (UniProt P97793); experiment: Inhibition of ALK activation in mouse BV-2 cells by Western blotting analysis; type: cell-based; conditions: dose 4-100 nM
Microglia [8] = experiment: Anti-necroptosis activity in LPS/zVAD stimulated mouse primary microglia overexpressed with RIPK1 assessed as reversal of severe membrane disruption by TEM analysis; type: functional, cell-based
Microglia [9] = experiment: Anti-necroptosis activity in LPS/zVAD stimulated mouse primary microglia overexpressed with MAP4K4 assessed as reversal of translucent cytoplasm by TEM analysis; type: functional, cell-based
Microglia [10] = experiment: Anti-necroptosis activity in LPS/zVAD stimulated mouse primary microglia overexpressed with MAP4K4 assessed as reversal of severe membrane disruption by TEM analysis; type: functional, cell-based
Microglia [11] = experiment: Anti-necroptosis activity in LPS/zVAD stimulated mouse primary microglia overexpressed with ALK assessed as reversal of mitochondrial swelling by TEM analysis; type: functional, cell-based
Microglia [12] = experiment: Anti-necroptosis activity in LPS/zVAD stimulated mouse primary microglia overexpressed with ALK assessed as reversal of severe membrane disruption by TEM analysis; type: functional, cell-based
[13] = Metabolic stability in human liver microsomes assessed as half-life at 1 uM measured upto 60 mins in presence of NADPH and UDPGA by LC-MS/MS analysis; type: ADME, Microsome
Cytochrome P450 2B6 = Cytochrome P450 2B6 (Homo sapiens, UniProt P20813); experiment: Inhibition of CYP2B6 (unknown origin) incubated for 10 mins in presence of NADPH by LC-MS/MS analysis; type: ADME
Chain of Cytochrome P450 2B6 (P20813 whole entry): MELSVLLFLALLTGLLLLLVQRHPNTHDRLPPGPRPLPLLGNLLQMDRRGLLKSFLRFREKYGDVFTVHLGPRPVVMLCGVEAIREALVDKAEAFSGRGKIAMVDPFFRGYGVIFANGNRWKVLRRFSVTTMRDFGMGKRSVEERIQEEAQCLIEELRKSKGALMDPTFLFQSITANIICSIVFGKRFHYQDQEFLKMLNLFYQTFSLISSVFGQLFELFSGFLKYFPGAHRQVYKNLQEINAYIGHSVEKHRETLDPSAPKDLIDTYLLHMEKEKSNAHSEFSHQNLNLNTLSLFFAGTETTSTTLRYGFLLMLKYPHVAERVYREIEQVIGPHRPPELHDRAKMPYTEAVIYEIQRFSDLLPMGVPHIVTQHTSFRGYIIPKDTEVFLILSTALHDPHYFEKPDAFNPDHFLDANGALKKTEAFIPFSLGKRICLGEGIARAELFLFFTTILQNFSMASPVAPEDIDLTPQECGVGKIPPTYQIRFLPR

hERG (KCNH2) = hERG (KCNH2) (Homo sapiens, UniProt Q12809); experiment: Inhibition of human ERG expressed in CHO cells at 20 uM by Qpatch clamp method relative to control; type: toxicity, cell-based; conditions: CHO cells that express hERG
Chain of hERG (KCNH2) (Q12809 whole entry): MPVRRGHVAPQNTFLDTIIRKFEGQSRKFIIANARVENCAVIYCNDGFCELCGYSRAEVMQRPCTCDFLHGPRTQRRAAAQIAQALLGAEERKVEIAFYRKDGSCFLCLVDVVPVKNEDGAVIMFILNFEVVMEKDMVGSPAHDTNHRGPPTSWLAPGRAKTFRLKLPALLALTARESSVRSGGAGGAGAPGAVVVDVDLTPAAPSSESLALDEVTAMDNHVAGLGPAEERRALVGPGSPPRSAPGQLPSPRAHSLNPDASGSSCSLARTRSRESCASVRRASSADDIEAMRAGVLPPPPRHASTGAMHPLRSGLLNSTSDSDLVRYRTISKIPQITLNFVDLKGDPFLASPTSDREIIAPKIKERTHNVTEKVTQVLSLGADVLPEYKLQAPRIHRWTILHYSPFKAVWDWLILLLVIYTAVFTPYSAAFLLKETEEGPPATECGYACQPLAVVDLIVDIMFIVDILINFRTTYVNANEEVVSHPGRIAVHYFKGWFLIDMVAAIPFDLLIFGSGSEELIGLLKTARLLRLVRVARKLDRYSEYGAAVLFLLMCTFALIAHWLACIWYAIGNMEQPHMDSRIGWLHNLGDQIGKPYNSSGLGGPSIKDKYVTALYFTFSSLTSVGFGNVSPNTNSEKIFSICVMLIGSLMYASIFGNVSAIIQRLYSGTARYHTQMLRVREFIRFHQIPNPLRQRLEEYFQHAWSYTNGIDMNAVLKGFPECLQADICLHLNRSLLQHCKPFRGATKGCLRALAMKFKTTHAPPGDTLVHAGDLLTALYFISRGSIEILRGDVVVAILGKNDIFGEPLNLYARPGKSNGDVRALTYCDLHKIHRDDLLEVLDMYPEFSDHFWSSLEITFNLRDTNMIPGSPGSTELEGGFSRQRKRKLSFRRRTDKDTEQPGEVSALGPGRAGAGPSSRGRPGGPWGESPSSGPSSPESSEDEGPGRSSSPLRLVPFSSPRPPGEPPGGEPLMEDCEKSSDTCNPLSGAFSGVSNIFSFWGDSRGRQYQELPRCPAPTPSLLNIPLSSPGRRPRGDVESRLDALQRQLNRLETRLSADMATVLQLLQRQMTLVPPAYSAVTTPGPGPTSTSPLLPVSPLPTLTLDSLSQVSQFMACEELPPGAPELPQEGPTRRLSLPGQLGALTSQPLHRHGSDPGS

[14] = Cmax in C57BL/6 mouse plasma at 10 mg/kg, po measured upto 24 hrs by LC-MS/MS analysis; type: ADME, organism-based
[15] = Half-life in C57BL/6 mouse plasma at 10 mg/kg, po measured upto 24 hrs by LC-MS/MS analysis; type: ADME, organism-based
[16] = Half-life in C57BL/6 mouse brain at 10 mg/kg, po measured upto 24 hrs by LC-MS/MS analysis; type: ADME, organism-based
Mus musculus [17] = experiment: Anti-alzheimer activity against 5 month old APP/PS1 transgenic mouse model assessed as […] at 2 mg/kg, po administered 4 times per week for 4 weeks; type: functional, organism-based
Mus musculus [18] = experiment: Anti-alzheimer activity against 8 month old 3xTg mouse model assessed as decrease in anxiety level at 2 to 10 mg/kg, po administered 4 times per week for 4 weeks; type: functional, organism-based; conditions: dose 2-10 mg/kg
Mus musculus [19] = experiment: Anti-alzheimer activity against 8 month old 3xTg mouse model assessed as decrease in restlessness at 2 to 10 mg/kg, po administered 4 times per week for 4 weeks; type: functional, organism-based; conditions: dose 2-10 mg/kg
Mus musculus [20] = experiment: Anti-alzheimer activity against 5 month old APP/PS1 transgenic mouse model assessed as increase in searching frequency towards annulus at 10 mg/kg, po administered 4 times per week for 4 weeks; type: functional, organism-based
Mus musculus [21] = experiment: Anti-alzheimer activity against 5 month old APP/PS1 transgenic mouse model assessed as improved spatial preference towards annulus at 10 mg/kg, po administered 4 times per week for 4 weeks; type: functional, organism-based
Mus musculus [22] = experiment: Anti-alzheimer activity against 5 month old APP/PS1 transgenic mouse model assessed as improved cognitive ability at 10 mg/kg, po administered 4 times per week for 4 weeks; type: functional, organism-based
Mus musculus [23] = experiment: Downregulation of MAP4K4 phosphorylation in 3xTg mouse hippocampus at 2 to 10 mg/kg, po by immunohistochemistry analysis; type: functional, organism-based; conditions: dose 2-10 mg/kg
Mus musculus [24] = experiment: Anti-necroptosis activity in 3xTg mouse hippocampus assessed as reduction in Iba activation at 2 to 10 mg/kg, po; type: functional, organism-based; conditions: dose 2-10 mg/kg
Mus musculus [25] = experiment: Anti-necroptosis activity in 3xTg mouse hippocampus assessed as reduction in pMLKL activation at 2 to 10 mg/kg, po; type: functional, organism-based; conditions: dose 2-10 mg/kg
Mus musculus [26] = experiment: Anti-alzheimer activity against 8 month old 3xTg mouse model assessed as reduction in Tau aggregation at 2 to 10 mg/kg, po; type: functional, organism-based; conditions: dose 2-10 mg/kg
Mus musculus [27] = experiment: Anti-alzheimer activity in 8 month old 3xTg mouse model assessed as reversal of transcriptomic changes in Plxnd1 at 10 mg/kg, po; type: functional, organism-based
Mus musculus [28] = experiment: Anti-alzheimer activity in 8 month old 3xTg mouse model assessed as reversal of transcriptomic changes in Pttg1 at 10 mg/kg, po; type: functional, organism-based

In the case of `Cc1cc(F)cc(Nc2ncc(Nc3ccc(SC(F)(F)F)cc3)cc2C(N)=O)c1`, the IC50 [1] is reported as 0.41 µM, the IC50 [2] is reported as 4.43 µM and the inhibition [3] is reported as “Active”. For the same molecule, the Activity (BV-2 [4]) was “Active”, the Activity (BV-2 [5]) was “Active” and the inhibition [6] was “Dose-dependent-effect”. For the same molecule, the inhibition [7] was “Dose-dependent-effect”, the Activity (Microglia [8]) was “inactive” and the Activity (Microglia [9]) was “inactive”. For the same molecule, the Activity (Microglia [10]) was “inactive”, the Activity (Microglia [11]) was “inactive” and the Activity (Microglia [12]) was “inactive”. For the same molecule, the half-life at 1 µM [13] was 3.22 h, the IC50 (Cytochrome P450 2B6) was 5.2 µM and the inhibition at 20 µM (hERG (KCNH2)) was 11.3%. It also gave a Cmax [14] of 1180 ng/mL, a half-life [15] of 13.3 h and a half-life [16] of 8.46 h. The Activity (Mus musculus [17]) was “Active”, the Activity (Mus musculus [18]) was “Active” and the Activity (Mus musculus [19]) was “Active”. The Activity (Mus musculus [20]) was “Active”, the Activity (Mus musculus [21]) was “Active” and the Activity (Mus musculus [22]) was “Active”. For the same molecule, the Activity (Mus musculus [23]) was “Active; Activity More Potent Than Nec-1”, the Activity (Mus musculus [24]) was “Active” and the Activity (Mus musculus [25]) was “Active”. The Activity (Mus musculus [26]) was “Active”, the Activity (Mus musculus [27]) was “Active” and the Activity (Mus musculus [28]) was “Active”.
